Publication doi:10.1101/2024.08.19.608619, “Discovery of potent SARS-CoV-2 nsp3 macrodomain inhibitors uncovers lack of translation to cellular antiviral response” (bioRxiv, 2024)
“And” between values parts separate entries of the source, which are not always exact repeats. Equal entries are not always repeated.

How the values were obtained:
5-HT1B (h) = target: T1, 5-HT1B (h) (Homo sapiens, UniProt P28222); experiment: In vitro CEREP profiling, 5-HT1B (h) (antagonist radioligand); format: binding; settings: test compound concentration 10 uM
T1 construct: purchased Eurofins Cerep (SafetyScreen44), recognised from the panel format
T1 sequence (P28222 whole entry): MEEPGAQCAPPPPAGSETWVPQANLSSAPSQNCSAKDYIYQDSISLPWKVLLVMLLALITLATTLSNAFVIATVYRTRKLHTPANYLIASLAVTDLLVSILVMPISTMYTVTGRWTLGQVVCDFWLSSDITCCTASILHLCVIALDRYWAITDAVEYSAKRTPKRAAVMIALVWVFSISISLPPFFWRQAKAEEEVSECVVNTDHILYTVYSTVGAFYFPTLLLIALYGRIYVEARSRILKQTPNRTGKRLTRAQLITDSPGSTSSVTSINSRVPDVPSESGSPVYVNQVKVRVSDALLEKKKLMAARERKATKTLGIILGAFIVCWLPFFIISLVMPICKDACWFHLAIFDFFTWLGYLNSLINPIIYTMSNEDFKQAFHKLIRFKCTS
From the text: (§1) Supplement media-1.zip/Safety_Panel_Profile.csv, table | column: perc_inhibition

KOR receptor = target: T2, KOR receptor (Homo sapiens, UniProt P41145); experiment: Eurofins CEREP panel, KOR; format: binding; settings: kappa (h) (KOP) (agonist radioligand); test compound concentration 10 uM
T2 construct: purchased Eurofins Cerep (SafetyScreen44), recognised from the panel format
T2 sequence (P41145 whole entry): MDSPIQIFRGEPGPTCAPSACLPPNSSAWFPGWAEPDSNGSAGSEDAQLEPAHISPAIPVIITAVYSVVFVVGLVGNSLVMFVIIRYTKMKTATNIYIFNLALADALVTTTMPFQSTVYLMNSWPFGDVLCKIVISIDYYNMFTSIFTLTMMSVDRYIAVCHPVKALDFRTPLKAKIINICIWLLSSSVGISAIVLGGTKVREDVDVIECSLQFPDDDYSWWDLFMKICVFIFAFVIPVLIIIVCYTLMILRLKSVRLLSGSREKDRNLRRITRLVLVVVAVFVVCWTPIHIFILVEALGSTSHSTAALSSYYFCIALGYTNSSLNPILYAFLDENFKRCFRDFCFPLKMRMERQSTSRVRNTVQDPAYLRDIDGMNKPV

Lck kinase (h) = target: T3, Lck kinase (h) (Homo sapiens, UniProt P06239); experiment: In vitro CEREP profiling, Lck kinase (h); format: biochemical; settings: test compound concentration 10 uM; Enzyme and Cell-based assays
T3 construct: purchased Eurofins Cerep (SafetyScreen44), recognised from the panel format
T3 sequence (P06239 whole entry): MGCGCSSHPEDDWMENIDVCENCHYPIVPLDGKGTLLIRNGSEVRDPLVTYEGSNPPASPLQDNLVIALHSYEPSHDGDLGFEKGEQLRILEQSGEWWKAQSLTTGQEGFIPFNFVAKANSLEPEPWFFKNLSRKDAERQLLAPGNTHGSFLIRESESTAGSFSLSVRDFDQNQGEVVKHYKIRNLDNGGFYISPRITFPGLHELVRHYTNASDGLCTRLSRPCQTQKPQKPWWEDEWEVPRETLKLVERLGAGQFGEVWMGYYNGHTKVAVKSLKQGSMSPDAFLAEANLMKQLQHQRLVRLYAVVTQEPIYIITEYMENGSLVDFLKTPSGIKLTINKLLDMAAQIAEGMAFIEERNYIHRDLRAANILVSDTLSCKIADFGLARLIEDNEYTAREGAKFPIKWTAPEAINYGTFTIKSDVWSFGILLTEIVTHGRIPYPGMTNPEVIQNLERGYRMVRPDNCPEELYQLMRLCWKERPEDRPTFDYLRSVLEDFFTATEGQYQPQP
From the text: as §1

HeLa-ACE2 cells = settings: HeLa-ACE2 cytotoxicity
5-HT3 (h) = target: T4, 5-HT3 (h) (Homo sapiens, UniProt P46098); experiment: In vitro CEREP profiling, 5-HT3 (h) (antagonist radioligand); format: binding; settings: test compound concentration 10 uM
T4 construct: purchased Eurofins Cerep (SafetyScreen44), recognised from the panel format
T4 sequence (P46098 24-478): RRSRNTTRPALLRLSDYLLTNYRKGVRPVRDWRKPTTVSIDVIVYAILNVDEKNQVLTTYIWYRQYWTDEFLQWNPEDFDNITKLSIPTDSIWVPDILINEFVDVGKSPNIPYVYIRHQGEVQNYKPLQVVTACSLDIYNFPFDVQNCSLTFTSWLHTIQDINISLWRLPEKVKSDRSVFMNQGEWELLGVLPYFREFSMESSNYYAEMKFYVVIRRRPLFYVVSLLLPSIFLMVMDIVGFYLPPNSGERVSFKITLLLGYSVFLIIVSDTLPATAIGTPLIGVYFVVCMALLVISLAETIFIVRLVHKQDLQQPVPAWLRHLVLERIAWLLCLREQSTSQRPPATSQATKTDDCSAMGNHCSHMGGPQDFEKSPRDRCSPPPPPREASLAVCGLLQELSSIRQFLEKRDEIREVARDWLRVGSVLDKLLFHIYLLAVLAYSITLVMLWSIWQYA
From the text: as §1

mu (MOP) (h) = target: T5, mu (MOP) (h) (Homo sapiens, UniProt P35372); experiment: In vitro CEREP profiling, mu (MOP) (h) (agonist radioligand); format: binding; settings: test compound concentration 10 uM
T5 construct: purchased Eurofins Cerep (SafetyScreen44), recognised from the panel format
T5 sequence (P35372 whole entry): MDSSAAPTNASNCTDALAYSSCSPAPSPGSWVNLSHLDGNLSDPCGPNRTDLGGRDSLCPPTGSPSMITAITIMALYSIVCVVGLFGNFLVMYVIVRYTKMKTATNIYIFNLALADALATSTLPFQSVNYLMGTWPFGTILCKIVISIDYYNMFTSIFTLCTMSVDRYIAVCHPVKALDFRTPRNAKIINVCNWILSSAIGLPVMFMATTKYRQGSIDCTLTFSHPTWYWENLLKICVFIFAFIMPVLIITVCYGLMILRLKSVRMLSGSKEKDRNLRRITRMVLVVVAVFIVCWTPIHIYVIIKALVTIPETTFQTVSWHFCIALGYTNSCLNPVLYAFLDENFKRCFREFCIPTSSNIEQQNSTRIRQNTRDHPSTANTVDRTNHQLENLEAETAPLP
From the text: as §1

V1a (h) = target: T6, V1a (h) (Homo sapiens, UniProt P37288); experiment: In vitro CEREP profiling, V1a (h) (agonist radioligand); format: binding; settings: test compound concentration 10 uM
T6 construct: purchased Eurofins Cerep (SafetyScreen44), recognised from the panel format
T6 sequence (P37288 whole entry): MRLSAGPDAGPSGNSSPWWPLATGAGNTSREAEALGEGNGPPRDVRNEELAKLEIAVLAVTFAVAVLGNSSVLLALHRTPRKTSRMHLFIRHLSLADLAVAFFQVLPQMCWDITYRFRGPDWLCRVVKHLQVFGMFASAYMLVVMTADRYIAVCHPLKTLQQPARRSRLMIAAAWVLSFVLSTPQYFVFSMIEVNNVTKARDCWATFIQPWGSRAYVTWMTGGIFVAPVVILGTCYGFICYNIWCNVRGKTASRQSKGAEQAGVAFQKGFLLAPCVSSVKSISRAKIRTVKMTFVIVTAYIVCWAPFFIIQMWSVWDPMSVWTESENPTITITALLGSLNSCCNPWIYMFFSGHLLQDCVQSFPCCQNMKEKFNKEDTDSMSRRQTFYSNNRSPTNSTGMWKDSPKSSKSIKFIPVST
From the text: as §1

[1] = In vitro dog hepatocyte stability; format: in vitro ADME
From the text: (§2) Supplement media-1.zip/Hepatocyte_Stability.csv, table | column: clint; t_half

delta (DOP) (h) = target: T7, delta (DOP) (h) (Homo sapiens, UniProt P41143); experiment: In vitro CEREP profiling, delta (DOP) (h) (agonist radioligand); format: binding; settings: test compound concentration 10 uM
T7 construct: purchased Eurofins Cerep (SafetyScreen44), recognised from the panel format
T7 sequence (P41143 whole entry): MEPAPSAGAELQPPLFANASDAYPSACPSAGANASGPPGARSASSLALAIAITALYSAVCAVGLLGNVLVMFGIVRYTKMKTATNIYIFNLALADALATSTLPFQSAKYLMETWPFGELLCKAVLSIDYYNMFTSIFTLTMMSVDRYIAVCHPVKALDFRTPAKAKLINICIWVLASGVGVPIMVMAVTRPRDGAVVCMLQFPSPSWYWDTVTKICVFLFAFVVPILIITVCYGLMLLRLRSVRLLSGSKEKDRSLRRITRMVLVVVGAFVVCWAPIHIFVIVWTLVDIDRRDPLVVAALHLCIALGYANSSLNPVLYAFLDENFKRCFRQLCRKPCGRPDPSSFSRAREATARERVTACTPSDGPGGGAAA
From the text: as §1

CCK1 (CCKA) (h) = target: T8, CCK1 (CCKA) (h) (Homo sapiens, UniProt P32238); experiment: In vitro CEREP profiling, CCK1 (CCKA) (h) (agonist radioligand); format: binding; settings: test compound 10 uM
T8 construct: purchased Eurofins Cerep (SafetyScreen44), recognised from the panel format
T8 sequence (P32238 1-428): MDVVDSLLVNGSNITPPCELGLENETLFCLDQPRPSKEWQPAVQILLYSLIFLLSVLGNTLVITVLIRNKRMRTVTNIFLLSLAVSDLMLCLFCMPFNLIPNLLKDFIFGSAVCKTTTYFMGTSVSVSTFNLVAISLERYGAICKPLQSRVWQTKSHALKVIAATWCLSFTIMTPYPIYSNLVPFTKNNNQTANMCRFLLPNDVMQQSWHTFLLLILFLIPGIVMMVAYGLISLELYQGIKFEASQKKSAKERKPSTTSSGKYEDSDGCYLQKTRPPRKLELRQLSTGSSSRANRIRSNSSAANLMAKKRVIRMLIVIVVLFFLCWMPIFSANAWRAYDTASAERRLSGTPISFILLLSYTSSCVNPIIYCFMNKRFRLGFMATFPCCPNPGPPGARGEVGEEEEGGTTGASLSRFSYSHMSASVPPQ
From the text: as §1

CYP = CYP inhibition; format: in vitro ADME; settings: In vitro CYP inhibition pooled; for potency: potency class in words
From the text: Supplement media-1.zip/CYP_Inhibition.csv, table | column: ic50; potency

CB2 (h) = target: T9, CB2 (h) (Homo sapiens, UniProt P34972); experiment: In vitro CEREP profiling, CB2 (h) (agonist radioligand); format: binding; settings: test compound 10 uM
T9 construct: purchased Eurofins Cerep (SafetyScreen44), recognised from the panel format
T9 sequence (P34972 whole entry): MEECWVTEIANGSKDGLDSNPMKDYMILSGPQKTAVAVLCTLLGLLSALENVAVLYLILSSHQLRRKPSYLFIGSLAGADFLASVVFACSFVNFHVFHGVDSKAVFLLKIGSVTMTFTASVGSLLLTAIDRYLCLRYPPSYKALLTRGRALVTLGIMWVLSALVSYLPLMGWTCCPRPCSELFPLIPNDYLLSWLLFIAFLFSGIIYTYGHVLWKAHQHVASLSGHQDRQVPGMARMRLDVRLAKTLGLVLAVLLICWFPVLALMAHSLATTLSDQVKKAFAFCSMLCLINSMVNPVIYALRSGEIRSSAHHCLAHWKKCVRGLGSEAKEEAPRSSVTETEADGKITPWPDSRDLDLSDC
From the text: as §1

[2] = In vitro rat hepatocyte stability; format: in vitro ADME
From the text: as §2

hERG = hERG (Homo sapiens, UniProt Q12809); experiment: In vitro hERG cardiotoxocity
Sequence of hERG (Q12809 whole entry): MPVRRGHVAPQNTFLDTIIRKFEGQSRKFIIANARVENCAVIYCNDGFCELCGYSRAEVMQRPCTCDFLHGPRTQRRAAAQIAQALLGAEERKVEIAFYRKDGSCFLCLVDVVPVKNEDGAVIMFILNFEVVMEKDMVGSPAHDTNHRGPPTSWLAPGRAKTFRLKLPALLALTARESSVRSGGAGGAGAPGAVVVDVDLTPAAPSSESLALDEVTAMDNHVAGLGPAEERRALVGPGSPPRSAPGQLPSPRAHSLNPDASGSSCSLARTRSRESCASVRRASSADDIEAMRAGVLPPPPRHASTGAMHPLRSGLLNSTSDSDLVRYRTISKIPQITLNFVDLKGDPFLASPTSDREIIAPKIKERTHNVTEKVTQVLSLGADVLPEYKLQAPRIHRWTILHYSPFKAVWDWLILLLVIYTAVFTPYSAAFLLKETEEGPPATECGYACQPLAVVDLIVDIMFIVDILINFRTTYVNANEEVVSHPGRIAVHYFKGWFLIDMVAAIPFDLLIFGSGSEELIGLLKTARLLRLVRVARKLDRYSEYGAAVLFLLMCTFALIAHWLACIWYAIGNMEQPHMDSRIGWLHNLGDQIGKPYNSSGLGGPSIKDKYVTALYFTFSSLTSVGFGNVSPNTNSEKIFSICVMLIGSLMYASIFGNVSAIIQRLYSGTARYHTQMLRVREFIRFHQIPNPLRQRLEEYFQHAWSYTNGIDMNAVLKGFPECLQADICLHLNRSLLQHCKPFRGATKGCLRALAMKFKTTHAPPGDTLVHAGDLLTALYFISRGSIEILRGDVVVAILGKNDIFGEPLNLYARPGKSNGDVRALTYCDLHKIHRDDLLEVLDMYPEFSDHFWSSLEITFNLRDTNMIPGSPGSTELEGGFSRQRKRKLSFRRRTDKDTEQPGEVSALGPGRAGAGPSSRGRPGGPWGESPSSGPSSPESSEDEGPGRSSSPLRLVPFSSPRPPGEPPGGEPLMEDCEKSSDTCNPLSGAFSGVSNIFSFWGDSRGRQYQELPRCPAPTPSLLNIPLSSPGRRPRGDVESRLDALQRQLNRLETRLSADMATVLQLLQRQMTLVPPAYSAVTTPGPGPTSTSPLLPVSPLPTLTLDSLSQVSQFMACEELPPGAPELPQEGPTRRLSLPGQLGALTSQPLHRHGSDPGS
From the text: Supplement media-1.zip/Cardiotoxicity.csv, table | column: ic50; perc_inhibition_top_conc

M1 (h) = target: T10, M1 (h) (Homo sapiens, UniProt P11229); experiment: In vitro CEREP profiling, M1 (h) (antagonist radioligand); format: binding; settings: test compound concentration 10 uM
T10 construct: purchased Eurofins Cerep (SafetyScreen44), recognised from the panel format
T10 sequence (P11229 1-460): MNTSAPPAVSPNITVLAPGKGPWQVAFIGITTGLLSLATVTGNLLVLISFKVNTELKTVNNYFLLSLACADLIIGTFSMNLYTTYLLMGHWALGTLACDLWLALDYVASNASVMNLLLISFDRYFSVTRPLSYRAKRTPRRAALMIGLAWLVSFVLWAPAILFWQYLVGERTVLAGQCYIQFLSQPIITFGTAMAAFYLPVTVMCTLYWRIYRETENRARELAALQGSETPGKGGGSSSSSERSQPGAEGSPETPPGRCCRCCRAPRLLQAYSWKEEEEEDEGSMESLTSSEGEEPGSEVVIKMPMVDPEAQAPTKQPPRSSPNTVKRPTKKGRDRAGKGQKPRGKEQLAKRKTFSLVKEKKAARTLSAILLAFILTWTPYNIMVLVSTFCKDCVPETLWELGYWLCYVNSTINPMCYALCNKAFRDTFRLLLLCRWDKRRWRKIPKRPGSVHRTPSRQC
From the text: as §1

NMDA = experiment: In vitro CEREP profiling, NMDA (antagonist radioligand); format: binding; settings: test compound 10 uM
From the text: as §1

In the case of `COc1ccc([C@H](Cc2nnn[nH]2)NC(=O)c2ncnc3[nH]ccc23)cc1` [ASAP-0015381], the “perc_inhibition (% inhibition of the binding of a ligand specific for each target)” value (5-HT1B (h)) is reported as -14%, the “perc_inhibition (% inhibition of the binding of a ligand specific for each target)” value (KOR receptor) is reported as 2% and the “perc_inhibition: % inhibition of control enzyme activity, Lck kinase (h)” value (Lck kinase (h)) is reported as 4%. The CC50 (HeLa-ACE2 cells) was > 20 µM, the cc10 (HeLa-ACE2 cells) was > 20.0 µM and the perc_max_measured (HeLa-ACE2 cells; highest measured response of the dose series) was 115.218% and 123.48%. The perc_min_measured (HeLa-ACE2 cells; lowest measured response of the dose series) was 79.698% and 90.022%, the “perc_inhibition (% inhibition of the binding of a ligand specific for each target)” value (5-HT3 (h)) was 6% and the “perc_inhibition (% inhibition of the binding of a ligand specific for each target)” value (mu (MOP) (h)) was -3%. The “perc_inhibition (% inhibition of the binding of a ligand specific for each target)” value (V1a (h)) was 5%, the clint [1] was < 3.0 uL/min/1E6 cells and the t_half [1] was > 231.0 min. For the same molecule, the “perc_inhibition (% inhibition of the binding of a ligand specific for each target)” value (delta (DOP) (h)) was -30%, the “perc_inhibition (% inhibition of the binding of a ligand specific for each target)” value (CCK1 (CCKA) (h)) was -5% and the IC50 (CYP; isoform 1A2) was > 50 µM. For the same molecule, the potency (CYP; isoform 1A2) was “weak”, the IC50 (CYP; isoform 2C9) was 31.2 µM and the potency (CYP; isoform 2C9) was “weak”. The IC50 (CYP; isoform 2C19) was > 50 µM, the potency (CYP; isoform 2C19) was “weak” and the IC50 (CYP; isoform 2D6) was > 50 µM. For the same molecule, the potency (CYP; isoform 2D6) was “weak”, the IC50 (CYP; isoform 3A4) was 25.4 µM and the potency (CYP; isoform 3A4) was “weak”. For the same molecule, the “perc_inhibition (% inhibition of the binding of a ligand specific for each target)” value (CB2 (h)) was -11%, the clint [2] was < 3.0 uL/min/1E6 cells and the t_half [2] was > 231.0 min. For the same molecule, the perc_inhibition_top_conc (hERG; at top test concentration 30 uM) was 27.0%, the IC50 (hERG; top test concentration 30 uM) was > 30 µM and the “perc_inhibition (% inhibition of the binding of a ligand specific for each target)” value (M1 (h)) was -4%. The “perc_inhibition (% inhibition of the binding of a ligand specific for each target)” value (NMDA) was 9%.
